Test results published in ChEMBL document CHEMBL5126521, “Analgesic Opioid Ligand Discovery Based on Nonmorphinan Scaffolds Derived from Natural Sources” (J Med Chem, 2022).
Square brackets hold non-standard residues; d marks the D form. Peptide text beside a SMILES is read from it.

How the values were obtained:
Mu-type opioid receptor [1] = molecular target: T1, Mu-type opioid receptor (Homo sapiens, UniProt P35372); assay: Agonist activity at human recombinant MOP expressed in CHO cells by calcium mobilization assay; assay type: functional, cell-based
Mus musculus [2] = assay: Antinociceptive activity in Swiss albino mouse assessed tail flick response in warm water administered icv; assay type: functional
[3] = molecular target: Delta-type opioid receptor (Rattus norvegicus, UniProt P33533); assay: Inhibition of Wistar rat brain membrane DOP; assay type: cell membranes
Mu-type opioid receptor [4] = molecular target: Mu-type opioid receptor (Rattus norvegicus, UniProt P33535); assay: Inhibition of Wistar rat brain membrane MOP; assay type: cell membranes
[5] = Stability in rat brain homogenate assessed as compound remaining measured after 90 mins relative to control; assay type: ADME, tissue-based; conditions: read-out: Stability
Mu-type opioid receptor [6] = molecular target: Mu-type opioid receptor (Cavia porcellus, UniProt P97266); assay: Antagonist activity at guinea pig ileum MOP; assay type: functional, tissue-based
Mus musculus [7] = assay: Antinociceptive activity in mouse administered icv; assay type: functional
Mu-type opioid receptor [8] = molecular target: T1, Mu-type opioid receptor; assay: Displacement of [3H]DAMGO from MOP (unknown origin) stably expressed in HEK293 cells by liquid scintillation counter analysis; assay type: cell-based
[9] = molecular target: T2, Delta-type opioid receptor (Homo sapiens, UniProt P41143); assay: Displacement of [3H]DPDPE from DOP (unknown origin) stably expressed in HEK293 cells by liquid scintillation counter analysis; assay type: cell-based
Mu-type opioid receptor [10] = molecular target: T1, Mu-type opioid receptor; assay: Agonist activity at MOP (unknown origin) stably expressed in HEK293 cells assessed as forskolin stimulated cAMP accumulation incubated for 30 mins by radioactivity based scintillation counter analysis; assay type: functional, cell-based
Mu-type opioid receptor [11] = molecular target: T1, Mu-type opioid receptor; assay: Agonist activity at MOP (unknown origin) stably expressed in HEK293 cells assessed as forskolin stimulated cAMP accumulation incubated for 30 mins by radioactivity based scintillation counter analysis relative to control; assay type: functional, cell-based; conditions: filed as agonist
[12] = Stability in mouse serum assessed as half life; assay type: ADME, cell-free
[13] = Stability in mouse brain homogenate assessed as half life; assay type: ADME, tissue-based
Rattus norvegicus = assay: Antinociceptive activity in rat administered icv by tail pressure test relative to control; assay type: functional; parameters: concentration or dose not given beside the values
Mu-type opioid receptor [14] = molecular target: Mu-type opioid receptor (Mus musculus, UniProt P42866); assay: Antagonist activity at mouse vas deferns MOP; assay type: functional
Mu-type opioid receptor [15] = molecular target: T1, Mu-type opioid receptor; assay: Binding affinity to MOP (unknown origin)
[16] = molecular target: T2, Delta-type opioid receptor; assay: Binding affinity to DOP (unknown origin)

Mu-type opioid receptor (Cavia porcellus, UniProt P97266), sequence (P97266 whole entry): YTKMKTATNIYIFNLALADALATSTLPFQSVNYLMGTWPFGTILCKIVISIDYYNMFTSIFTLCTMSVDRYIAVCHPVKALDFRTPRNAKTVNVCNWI
Delta-type opioid receptor (Rattus norvegicus, UniProt P33533), sequence (P33533 whole entry): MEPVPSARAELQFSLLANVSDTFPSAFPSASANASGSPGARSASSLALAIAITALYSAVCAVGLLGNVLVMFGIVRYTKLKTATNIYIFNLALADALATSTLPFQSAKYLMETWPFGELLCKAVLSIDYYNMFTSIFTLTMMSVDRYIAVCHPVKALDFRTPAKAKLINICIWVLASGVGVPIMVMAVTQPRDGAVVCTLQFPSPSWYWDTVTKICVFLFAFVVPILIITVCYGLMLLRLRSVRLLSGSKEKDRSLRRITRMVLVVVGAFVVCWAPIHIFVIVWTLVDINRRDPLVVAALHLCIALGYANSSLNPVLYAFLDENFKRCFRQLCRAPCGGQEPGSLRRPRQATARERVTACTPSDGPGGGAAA
T1 sequence (P35372 whole entry): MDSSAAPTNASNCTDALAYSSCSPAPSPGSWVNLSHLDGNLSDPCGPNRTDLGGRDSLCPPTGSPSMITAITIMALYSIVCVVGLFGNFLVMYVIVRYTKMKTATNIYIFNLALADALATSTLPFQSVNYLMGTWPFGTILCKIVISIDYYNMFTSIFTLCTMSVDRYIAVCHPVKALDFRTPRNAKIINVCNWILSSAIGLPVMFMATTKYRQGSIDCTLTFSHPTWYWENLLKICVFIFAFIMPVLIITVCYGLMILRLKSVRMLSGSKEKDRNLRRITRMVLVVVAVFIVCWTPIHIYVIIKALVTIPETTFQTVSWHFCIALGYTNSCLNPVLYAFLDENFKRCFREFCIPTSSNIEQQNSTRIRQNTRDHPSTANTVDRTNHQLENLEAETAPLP
T2 sequence (P41143 whole entry): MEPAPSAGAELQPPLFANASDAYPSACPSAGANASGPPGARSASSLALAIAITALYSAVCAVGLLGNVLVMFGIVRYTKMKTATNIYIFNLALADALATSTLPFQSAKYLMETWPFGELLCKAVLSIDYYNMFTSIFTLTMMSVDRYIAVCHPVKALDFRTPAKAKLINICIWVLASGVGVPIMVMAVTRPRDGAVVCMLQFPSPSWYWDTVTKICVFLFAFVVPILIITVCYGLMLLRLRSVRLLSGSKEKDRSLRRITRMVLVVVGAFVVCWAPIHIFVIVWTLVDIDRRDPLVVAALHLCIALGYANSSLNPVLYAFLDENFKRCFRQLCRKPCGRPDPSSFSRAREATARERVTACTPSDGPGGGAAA
Mu-type opioid receptor (Rattus norvegicus, UniProt P33535), sequence (P33535 whole entry): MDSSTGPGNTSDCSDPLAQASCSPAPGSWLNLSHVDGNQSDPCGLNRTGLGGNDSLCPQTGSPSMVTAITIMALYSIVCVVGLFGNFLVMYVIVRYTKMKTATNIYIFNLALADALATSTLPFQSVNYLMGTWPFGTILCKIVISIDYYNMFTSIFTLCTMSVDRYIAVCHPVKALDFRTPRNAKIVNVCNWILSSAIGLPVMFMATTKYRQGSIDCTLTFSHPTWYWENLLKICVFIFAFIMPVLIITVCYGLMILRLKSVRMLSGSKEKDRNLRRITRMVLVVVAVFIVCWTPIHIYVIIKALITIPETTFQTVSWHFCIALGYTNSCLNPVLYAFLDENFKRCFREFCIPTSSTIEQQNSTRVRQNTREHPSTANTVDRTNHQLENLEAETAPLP
Mu-type opioid receptor (Mus musculus, UniProt P42866), sequence (P42866 whole entry): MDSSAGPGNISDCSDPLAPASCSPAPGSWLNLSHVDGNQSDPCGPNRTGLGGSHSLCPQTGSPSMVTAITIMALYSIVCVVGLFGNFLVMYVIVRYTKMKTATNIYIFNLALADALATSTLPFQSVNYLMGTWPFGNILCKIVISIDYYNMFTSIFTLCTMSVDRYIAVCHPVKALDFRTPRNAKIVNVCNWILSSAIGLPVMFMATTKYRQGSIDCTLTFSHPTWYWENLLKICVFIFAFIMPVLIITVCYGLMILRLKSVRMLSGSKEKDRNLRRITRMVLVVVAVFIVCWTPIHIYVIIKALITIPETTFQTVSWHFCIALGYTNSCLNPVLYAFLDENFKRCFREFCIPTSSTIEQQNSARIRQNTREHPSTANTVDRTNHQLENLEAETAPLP

**Q.** Which EC50 (Mu-type opioid receptor [1]) does the source give for `Cc1cccc([C@@H]2NC(=O)[C@H](NC(=O)[C@@H](N)Cc3c(C)cc(O)cc3C)CCCCNC(=O)C[C@@H](C(N)=O)NC(=O)[C@H](c3ccccc3)NC2=O)c1` here?
**A.** 2.95 nM

**Q.** And the ED50 (Mus musculus [2])?
**A.** 0.22 µg

**Q.** And the IC50 [3]?
**A.** 116 nM

**Q.** And the IC50 (Mu-type opioid receptor [4])?
**A.** 0.8 nM

**Q.** What about the remaining at […] [5] of the same molecule?
**A.** 85%

**Q.** Which results are given for `N=C(N)NCCC[C@@H](NC(=O)[C@@H](N)Cc1ccc(O)cc1)C(=O)N[C@@H](Cc1ccccc1)C(=O)NCC(=O)N[C@@H](Cc1ccc(O)cc1)C(=O)N1CCC[C@H]1C(N)=O`?
**A.** IC50 (Mu-type opioid receptor [6]): 190 nM; ED50 (Mus musculus [7]): 12.5 pmol

**Q.** With `Cc1cc(O)cc(C)c1C[C@H](N)C(=O)N[C@@H]1CCCCNC(=O)C[C@@H](C(N)=O)NC(=O)[C@H](c2ccc(F)cc2)NC(=O)[C@H](c2ccccc2)NC1=O` as the molecule, how does the remaining at […] [5] read?
**A.** 93%

**Q.** Which results are given for `C=C(C(N)=O)[C@@H](NC(=O)[C@H](Cc1ccccc1)NC(=O)[C@@H](C)N(C)C(=O)[C@@H](N)Cc1ccc(O)cc1)c1ccco1`?
**A.** Ki (Mu-type opioid receptor [8]): 0.45 nM; Ki [9]: 4510 nM; EC50 (Mu-type opioid receptor [10]): 4.11 nM; Emax (Mu-type opioid receptor [11]): 87.7%

**Q.** With `NC(=O)[C@@H]1CC(=O)NCCCC[C@@H](NC(=O)[C@@H](N)Cc2ccc(O)cc2)C(=O)N[C@@H](c2ccccc2)C(=O)N[C@@H](c2ccc(F)cc2F)C(=O)N1` as the molecule, how does the remaining at […] [5] read?
**A.** 93%

**Q.** For `C=C(C(=O)O)[C@@H](N)c1ccco1`, which half-life [12] is on record?
**A.** ≥ 5 h

**Q.** And the half-life [13]?
**A.** ≥ 5 h

**Q.** What does the source list for `Cc1cc(O)cc(C)c1C[C@H](N)C(=O)N[C@@H]1CCCCNC(=O)C[C@@H](C(N)=O)NC(=O)[C@H](c2ccccc2)NC(=O)[C@H](c2ccccc2)NC1=O`?
**A.** EC50 (Mu-type opioid receptor [1]): 1.73 nM; ED50 (Mus musculus [2]): 0.02 µg; IC50 [3]: 400 nM; IC50 (Mu-type opioid receptor [4]): 0.26 nM; remaining at […] [5]: 85%

**Q.** Which results are given for `C=C(C(N)=O)[C@@H](NC(=O)[C@H](Cc1c[nH]c2ccccc12)NC(=O)[C@@H](C)N(C)C(=O)[C@@H](N)Cc1c(C)cc(O)cc1C)c1ccccc1`?
**A.** Ki (Mu-type opioid receptor [8]): 0.032 nM; Ki [9]: 37.2 nM; EC50 (Mu-type opioid receptor [10]): 0.004 nM; Emax (Mu-type opioid receptor [11]): 98.1%; half-life [12]: ≥ 5 h; half-life [13]: ≥ 5 h

**Q.** With `Cc1cc(O)cc(C)c1C[C@H](N)C(=O)N[C@@H]1CCCCNC(=O)C[C@@H](C(N)=O)NC(=O)[C@H](c2ccc(F)cc2F)NC(=O)[C@H](c2ccccc2)NC1=O` as the molecule, how does the remaining at […] [5] read?
**A.** 93%

**Q.** With `Cc1cc(O)cc(C)c1C[C@H](N)C(=O)N[C@@H]1CCCCNC(=O)C[C@@H](C(N)=O)NC(=O)[C@H](c2ccc(C(F)(F)F)cc2)NC(=O)[C@H](c2ccccc2)NC1=O` as the molecule, how does the remaining at […] [5] read?
**A.** 93%

**Q.** Which remaining at […] [5] does the source give for `NC(=O)[C@@H]1CC(=O)NCCCC[C@@H](NC(=O)[C@@H](N)Cc2ccc(O)cc2)C(=O)N[C@@H](c2ccc(F)cc2)C(=O)N[C@@H](c2ccccc2)C(=O)N1` here?
**A.** 93%

**Q.** Which results are given for `N=C(N)NCCC[C@@H](NC(=O)[C@@H](N)Cc1ccc(O)cc1)C(=O)N[C@@H](Cc1ccccc1)C(=O)NCC(=O)N[C@@H](Cc1ccc(O)cc1)C(N)=O`?
**A.** IC50 (Mu-type opioid receptor [6]): 160 nM; ED50 (Mus musculus [7]): 20.2 pmol

**Q.** For `Cc1cc(O)cc(C)c1C[C@H](N)C(=O)N[C@@H]1CCCCNC(=O)C[C@@H](C(N)=O)NC(=O)[C@H](c2ccccc2)NC(=O)[C@H](c2ccc(F)cc2F)NC1=O`, which remaining at […] [5] is on record?
**A.** 93%

**Q.** What does the source list for `C=C(C(N)=O)[C@@H](NC(=O)[C@H](Cc1c[nH]c2ccccc12)NC(=O)[C@@H](C)N(C)C(=O)[C@@H](N)Cc1ccc(O)cc1)c1ccco1`?
**A.** Ki (Mu-type opioid receptor [8]): 0.3 nM; Ki [9]: 3100 nM; EC50 (Mu-type opioid receptor [10]): 1.45 nM; Emax (Mu-type opioid receptor [11]): 90.6%

**Q.** For `Cc1ccccc1[C@@H]1NC(=O)[C@H](c2ccccc2)NC(=O)[C@H](NC(=O)[C@@H](N)Cc2c(C)cc(O)cc2C)CCCCNC(=O)C[C@@H](C(N)=O)NC1=O`, which EC50 (Mu-type opioid receptor [1]) is on record?
**A.** 5.62 nM

**Q.** And the ED50 (Mus musculus [2])?
**A.** 0.05 µg

**Q.** And the IC50 [3]?
**A.** 2.05 nM

**Q.** And the IC50 (Mu-type opioid receptor [4])?
**A.** 0.04 nM

**Q.** And the remaining at […] [5]?
**A.** 85%

**Q.** With `C[C@@H](NC(=O)[C@@H](N)Cc1ccc(O)cc1)C(=O)N[C@@H](Cc1ccccc1)C(N)=O` as the molecule, how does the Activity (Rattus norvegicus) read?
**A.** <0.2%

**Q.** And the IC50 (Mu-type opioid receptor [6])?
**A.** 262 nM

**Q.** What about the IC50 (Mu-type opioid receptor [14]) of the same molecule?
**A.** 4050 nM

**Q.** What does the source list for `Cc1cc(O)cc(C)c1C[C@H](N)C(=O)O`?
**A.** half-life [12]: ≥ 5 h; half-life [13]: ≥ 5 h

**Q.** With `NC(=O)[C@@H]1CC(=O)NCCCC[C@@H](NC(=O)[C@@H](N)Cc2ccc(O)cc2)C(=O)N[C@@H](c2ccc(F)cc2F)C(=O)N[C@@H](c2ccccc2)C(=O)N1` as the molecule, how does the remaining at […] [5] read?
**A.** 93%

**Q.** With `C[C@@H](NC(=O)[C@@H](N)Cc1ccc(O)cc1)C(=O)N[C@@H](Cc1ccccc1)C(=O)NCC(=O)N[C@@H](Cc1ccc(O)cc1)C(=O)N1CCC[C@H]1C(=O)N[C@@H](CO)C(N)=O` as the molecule, how does the IC50 (Mu-type opioid receptor [6]) read?
**A.** > 4000 nM

**Q.** And the IC50 (Mu-type opioid receptor [14])?
**A.** > 15000 nM

**Q.** For `C[C@@H](NC(=O)[C@@H](N)Cc1ccc(O)cc1)C(=O)N[C@@H](Cc1ccccc1)C(=O)NCC(=O)N[C@@H](Cc1ccc(O)cc1)C(N)=O` (H-Y[dA]FGY-NH2), which Activity (Rattus norvegicus) is on record?
**A.** 27%

**Q.** What about the Ki (Mu-type opioid receptor [15]) of the same molecule?
**A.** 0.98 nM

**Q.** And the Ki [16]?
**A.** 88 nM

**Q.** What about the IC50 (Mu-type opioid receptor [6]) of the same molecule?
**A.** 2.9 nM

**Q.** What about the IC50 (Mu-type opioid receptor [14]) of the same molecule?
**A.** 23.8 nM
